Test results from doi:10.1101/2025.02.17.638454, “Synergistic RAS-MAPK and AKT Activation in MYC-Driven Tumors via Adjacent PVT1 Rearrangements” (bioRxiv, 2025).
No end group written: not given here.

Tests used:
Type in all cases: cell-based, human
MYC [1] = test: Western blot of MYC in COLO-320DM; conditions: COLO320DM
Procedure: (§1) For whole-cell lysate, the cell pellet was resuspended in RIPA buffer (Cell Signaling Technologies, Danvers, MA) supplemented with a protease inhibitor cocktail (Cell Signaling Technologies) and incubated on ice for 20 minutes. The lysate was then centrifuged at 14,000 revolutions/minute for 10 minutes at 4°C, and the supernatant was harvested. Protein concentration was quantified by BCA Protein Assay Kit (Thermo Fisher Scientific) as per kit protocol. Next, 20 μg of whole-cell lysate was electrophoresed on a 4%–20% gradient polyacrylamide gel with SDS (Bio-Rad, Hercules, CA) and electroblotted onto polyvinylidene difluoride membranes (Bio-Rad). Membranes were blocked in Tris-buffered saline with 5% nonfat milk and 0.1% Tween and probed with antibodies. Bound proteins were detected with horseradish-peroxidase–conjugated secondary antibodies (Cell Signaling Technologies) and SuperSignal West Femto (Thermo Fisher Scientific). […]
The HNB ORF and eGFP (control) were cloned in an inducible lentivirus expression, TRE-gateway plasmid (pLIX_403, Addgene, #41395). […] The protein lysates were collected and quantified using the previously described protocol. […] Bound proteins were detected with horseradish-peroxidase–conjugated secondary antibodies (Cell Signaling Technologies) and SuperSignal West Femto (Thermo Fisher Scientific). […]

FFX = test: Western blot of FFX in D458; conditions: D458, siRNA vs si.Ctrl, anti-FFX antibody
Procedure: as §1

MYC [2] = test: Western blot of MYC in D458
Procedure: For whole-cell lysate, the cell pellet was resuspended in RIPA buffer (Cell Signaling Technologies, Danvers, MA) supplemented with a protease inhibitor cocktail (Cell Signaling Technologies) and incubated on ice for 20 minutes. The lysate was then centrifuged at 14,000 revolutions/minute for 10 minutes at 4°C, and the supernatant was harvested. Protein concentration was quantified by BCA Protein Assay Kit (Thermo Fisher Scientific) as per kit protocol. Next, 20 μg of whole-cell lysate was electrophoresed on a 4%–20% gradient polyacrylamide gel with SDS (Bio-Rad, Hercules, CA) and electroblotted onto polyvinylidene difluoride membranes (Bio-Rad). Membranes were blocked in Tris-buffered saline with 5% nonfat milk and 0.1% Tween and probed with antibodies. Bound proteins were detected with horseradish-peroxidase–conjugated secondary antibodies (Cell Signaling Technologies) and SuperSignal West Femto (Thermo Fisher Scientific). Antibodies used were anti-c-MYC (Cell Signaling Technology, 5605, anti-Phospho-c-MYC (Ser62) (Cell Signaling Technology, 13748), anti-β ACTIN (Cell Signaling Technology, 8457), anti-Phospho-p44/42 (Erk1/2) (Thr202/Tyr204) (Cell Signaling Technology, 4370), anti-p44/42 (Erk1/2) (Cell Signaling Technology, 4695), anti-Phospho-MEK1/2 (Ser217/221) (Cell Signaling Technology, 9154), anti-MEK1/2 (Cell Signaling Technology, 9122), anti-Phospho-p90RSK (Ser380) (Cell Signaling Technology, 11989), anti-RSK1/RSK2/RSK3 (Cell Signaling Technology, 9355), Anti-Rabbit IgG, HRP-linked Antibody (Cell Signaling Technology, 7074). Anti-FFX (Firefox) monoclonal antibodies were custom produced by Proteintech using FFX residues 13–104 as epitope.
The HNB ORF and eGFP (control) were cloned in an inducible lentivirus expression, TRE-gateway plasmid (pLIX_403, Addgene, #41395). Lentivirus was produced in HEK293T cells using the protocol described above. D458, NCI-H1792 and COLO 320DM cells were transfected with inducible HNB lentivirus and selected with 1 μg/mL concentration of Puromycin. Selected cells were seeded at a concentration of 4 × 10^5 cells per well. After 24 hours of seeding, the cells were treated with 1 μg/mL Doxycycline for 48 hours. The cells were then lysed using RIPA buffer and 1X protease inhibitor cocktail. The protein lysates were collected and quantified using the previously described protocol. 20 μg of whole-cell lysate was electrophoresed on a 4%–20% gradient polyacrylamide gel with SDS (Bio-Rad, Hercules, CA) and electroblotted onto polyvinylidene difluoride membranes (Bio-Rad). […] Bound proteins were detected with horseradish-peroxidase–conjugated secondary antibodies (Cell Signaling Technologies) and SuperSignal West Femto (Thermo Fisher Scientific). […]

MYC [3] = test: Western blot of MYC in SK-PN-DW; conditions: si.CircPVT1 vs si.Ctrl, n=3, unpaired t test, 0.0049
Procedure: as §1

COLO-320DM cells = test: Proliferation assay COLO-320DM; conditions: COLO320DM
D458 cells = test: Proliferation assay D458
HALLMARK_MYC_TARGETS = test: GSEA MYC targets, SK-PN-DW; conditions: si.CircPVT1 vs si.Ctrl, n=3, Padj = 0.010
From the text: RNAseq processing: Raw reads were mapped to the hg19 human reference genome using the STAR aligner (v.2.5.0a) 66. PCR-duplicated reads and low mapping quality reads (MQ score below 20) were removed using Picard tools and SAMtools, respectively. Aligned reads were counted using htseq-count (v.0.6.1p1) 69 and normalized according to size factors method from DESeq2 70. We used fold change ≥2 and FDR <0.05 as the determination of differentially expressed genes (DEG). […]
Supplementary Figure 9: Gene set enrichment analysis scores (GSEA) analysis for MYC targets genes in COLODM320 (A,B) and SK-PN-DW (C,D) treated with si.CircPVT 1. si.Ctrl was used as control . n=3, for each treatment condition .
(also on this page, place not known: Enrichment Score Enrichment Score si.CircPVT1. control. condition. Enrichment Score Enrichment Score .CC-BY licenseavailable preprintthis https://doi.org/10.1101/2025.02.17.638454doi:) […]

Row | Substance | MYC protein (MYC [1]; si.CircPVT1 vs si.Ctrl, n=3, unpaired t test, <0.0001) | FFX protein expression (FFX) | MYC protein (MYC [2]; D458, si.CircPVT1 vs si.Ctrl, n=3, unpaired t test) | MYC protein (MYC [3]) | cellular proliferation (COLO-320DM cells; si.CircPVT1 vs si.Ctrl, n=3, two-way ANOVA, P<0.0001) | cellular proliferation (D458 cells; D458, transfection with si.CircPVT1 vs si.Ctrl, n=3, two-way ANOVA) | NES, HALLMARK_MYC_TARGETS_V1 (HALLMARK_MYC_TARGETS) | NES, HALLMARK_MYC_TARGETS_V2 (HALLMARK_MYC_TARGETS) | MYC protein level (MYC [1]; induction of HNB (-/+ Dox)) | MYC protein level (MYC [2]; D458, induction of HNB (-/+ Dox)) | cellular proliferation (COLO-320DM cells; induction of HNB (-/+ Dox), P=0.0002) | cellular proliferation (D458 cells; D458, induction of HNB or HNB mutant (+/- Dox))
1 | si.CircPVT1: siRNA targeting the junction sequence of CircPVT1, 5’-UGGGCUUGAGGCCUGAUCUUU-3’ (other strand not given here) | significant reduction of MYC protein | significantly reduced the protein | significant reduction of MYC protein | significant reduction of MYC protein | reduced cellular proliferation | reduced cellular proliferation | -1.653 | -1.789 |  |  |  | 
2 | MKTQLGAVKGFLHV [HNB] |  |  |  |  |  |  |  |  | significantly reduced MYC expression at the mRNA as well as the protein levels | significantly reduced MYC expression at the mRNA as well as the protein levels | significantly reduced cellular proliferation | significantly reduced cellular proliferation
